The record followed here is patent US20260325510A1, “COMBINATIONS COMPRISING AN ATR INHIBITOR AND A PARP INHIBITOR AND METHODS OF USE THEREOF” (Jazz Pharmaceuticals Therapeutics, Inc., priority 2023, published 2026).

The nature of data set [1]: Hematology tolerability study. It is filed as in vivo, female C57BL/6 mice. As to conditions: free ATR inhibitor in combination with free niraparib.
Procedure: In order to study the effects of hematology tolerability under different dosing regimens, 8-12 week old, female C57BL/6 mice were used. Body weight was measured qd×5, then biweekly to the end of the study. Animals were weighed and monitored for survival and in-life observations were collected at the time of weight measurement. […] Mice were monitored individually to endpoint which was 18 days. Full volume blood was collected by terminal cardiac puncture under isoflurane anesthesia and analyzed for reticulocyte count/number, red blood cell count/number, hemoglobin, hematocrit, platelet count/number, white blood cell count/number, neutrophil count/number, monocyte count/number and lymphocyte count/number.
Data set [2] can be described thus: Baseline monotherapy tolerability, 4 weeks IV (complete blood count). It is filed as in vivo, female athymic nude mice. To be noted: 60 mg/kg IV, three times weekly. As for the experimental part:
Maximum tolerated dose studies were conducted on healthy, 6-8 week-old female athymic nude mice (Jackson Laboratories). For baseline monotherapy tolerability, 60 mg/kg of niraparib both in free and liposomal form was IV administered to nude mice at a dosing schedule of every other day followed by a two-day holiday (i.e., three days per week) for 4-weeks (n=5 for each cohort). Free drug was supplied in hydroxybetacyclodextrin in HEPES Buffered Saline with 5% dextrose, pH adjusted to 7.4. Study mice were then sacrificed at 24-hours post final injection with endpoint blood collection by cardiac puncture. Complete blood count (CBC) was then conducted on a Vetscan HM5 hematology analyzer (Zoetis, New Jersey, USA).
This study was conducted over a 4-week period to better capture hematopoietic turnover. Athymic nude mice were selected due to the presence of normal levels of neutrophils, monocytes, and red blood cells on top of a reduced number of non-functional lymphocytes. The immunocompromised nature of athymic nude mice allowed for better comparative translation of dose sensitivity to fully immunocompromised mice (i.e. NSG) that are required for xenograft studies.

Turning to `CNCc1ccc(-c2cc(-c3nc(-c4ccc(S(=O)(=O)C(C)C)cc4)cnc3N)on2)cc1` [berzosertib], the hematological toxicity result in data set [1] was “severe reticulocytopenia and leukopenia”. In the case of `NC(=O)c1cccc2cn(-c3ccc([C@@H]4CCCNC4)cc3)nc12` [FREE-NIRB, niraparib], the hematological toxicity result in data set [2] is on record as “significant hematological toxicity in the form of macrocytic anemia”.
